Assay results taken from US20220315574A1, “Beta-Arrestin-Modulating Compounds and Methods of Using Same” (Duke University, priority 2019, published 2022).
Where a name gives a salt, the structure may show the parent alone.

Key:
Assay type in all cases: cell-based
[1] = target: T1, βarr2 recruitment to agonist-activated β2V2R (Homo sapiens, UniProt P32121); experiment: DiscoveRx PathHunter β-arrestin recruitment assay in U2OS cells; settings: series of compound concentrations, 30 min pretreatment, isoproterenol dose-response
T1 construct: host or cells: U2OS
T1 sequence (P32121 whole entry): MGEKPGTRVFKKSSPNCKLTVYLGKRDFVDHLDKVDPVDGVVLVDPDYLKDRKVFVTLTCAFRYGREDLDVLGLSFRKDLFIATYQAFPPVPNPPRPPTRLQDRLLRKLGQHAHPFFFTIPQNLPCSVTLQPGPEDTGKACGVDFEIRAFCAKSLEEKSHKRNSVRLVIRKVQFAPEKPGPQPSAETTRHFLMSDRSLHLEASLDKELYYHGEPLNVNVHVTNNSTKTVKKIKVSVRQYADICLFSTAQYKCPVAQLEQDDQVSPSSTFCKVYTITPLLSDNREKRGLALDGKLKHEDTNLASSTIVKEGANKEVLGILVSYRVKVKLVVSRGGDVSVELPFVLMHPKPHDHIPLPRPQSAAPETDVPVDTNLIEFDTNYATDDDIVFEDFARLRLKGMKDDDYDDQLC
Procedure: β-arrestin recruitment to the agonist-activated receptor (02V2R) was measured using the DiscoveRx PathHunter β-arrestin assay (Ahn, S. et al. Allosteric “beta-blocker” isolated from a DNA-encoded small molecule library. Proc Natl Acad Sci U SA 114, 1708-1713, doi:10.1073/pnas.1620645114 (2017)). […] Agonist-stimulated recruitment of βarr2 to the receptor results in the formation of functionally active β-gal enzyme. Addition of substrate generates a chemiluminescence signal directly correlated to the extent of recruitment. U2OS cells co-expressing β2V2R and βarr2 were plated in 96-well clear-bottomed plates at a density of 25,000 cells per well (80 μL per well), 24 hours prior to compound treatment. On the day of experiment, cells were first treated with compound or vehicle for 30 min, followed by agonist (Iso) stimulation for 60 min at 37° C. Cells were then treated with PathHunter™ detection reagents for 90 min at 37° C., and luminescence signals were measured using a CLARIOstar microplate reader (BMG Labtech Inc., Cary, N.C.).

[2] = tested on: β2V2R-βarr internalization; experiment: DiscoveRx PathHunter activated receptor endocytosis assay in U2OS cells; settings: series of compound concentrations, 30 min pretreatment, isoproterenol dose-response
Procedure: β-arrestin-mediated activated receptor internalization was measure using the DiscoveRx PathHunter activated receptor endocytosis assay according to the manufacturer's protocols (DiscoverRx, Fremont, Calif.). Briefly, an Enzyme Acceptor (EA)-tagged βarr and a ProLink tag localized to endosomes are stably expressed in U2OS cells. Untagged β2V2R is transiently expressed (4 ug of DNA). The next day, cells (25,000 cells per well) were then seeded in white 96-well clear-bottomed assay plates and incubated for 24 h before experiments. On the day of experiment, cells were first treated with compound or vehicle for 30 min, followed by a series concentrations of agonist (Iso) stimulation for 60 min at 37° C. Receptor internalization was detected as luminescence resulting from the complementation of β-galactosidase fragments (Enzyme Acceptor and ProLink) within endosomes. Luminescence signals were measured on a CLARIOstar microplate reader using the PathHunter Detection kit (DiscoveRx).

ERK1/2 = experiment: Live cell ERK1/2 activation assay (HEK293 cells stably expressing β2AR); settings: for βarr1/2-dependent ERK activation through β2-adrenergic receptor: carvedilol stimulation after compound pretreatment
Procedure: To assess the effect(s) of βarr small-molecule modulators on receptor-stimulated β-arr dependent ERK1/2 activation, HEK293 cells stably expressing β2AR plates were starved for 6 hours in serum-free medium prior to stimulation (Wisler, J. W. et al. A unique mechanism of beta-blocker action: carvedilol stimulates beta-arrestin signaling. Proc Natl Acad Sci USA 104, 16657-16662, doi:10.1073/pnas.0707936104 (2007); Wang, J. et al. Galphai is required for carvedilol-induced beta1 adrenergic receptor beta-arrestin biased signaling. Nat Commun 8, 1706, doi:10.1038/s41467-017-01855-z (2017)). Cells were pretreated with βarr small-molecule modulators or vehicle, then incubated for 30 min at 37° C. After stimulation with appropriate receptor ligand (carvedilol or isoproterenol) for indicated time points, reactions were terminated by the addition of Laemmli sample buffer. The cell lysates were sonicated for 15 sec (2×) and clarified by centrifugation 14,000×g (4° C., 15 min). Proteins were resolved on an SDS-PAGE gel, transferred to nitrocellulose membranes, and immunoblotted using rabbit polyclonal anti-phospho-p44/42 MAPK (ERK1/2) antibody (1:2000; Cell Signaling), anti-MAPK1/2 (ERK1/2) antibody (1:10,000; Millipore-Sigma), anti-β-arrestin1 antibody (A1CT; 1:3000) or anti-β-arrestin2 antibody (A1CT; 1:3000, Lefkowitz lab, Duke University). Protein bands on the membrane were detected with SuperSignal West Pico enhanced chemiluminescent substrate (Thermo Fisher) and captured using a ChemiDoc-XRS charge-coupled device camera system (Bio-Rad Laboratories). Bands were quantified by densitometry using Image Lab (Bio-Rad, Hercules, Calif.) and GraphPad Prism software was used for data analyses.
For experiments involving siRNA transfection and knockdown βarrs, after stimulation cells were lysed in ice-cold 1% NP-40 lysis buffer [20 mM tris-HCl (pH 7.4), 137 mM NaCl, 20% glycerol, 1% NP-40, 2 mM sodium orthovanadate, 1 mM phenylmethylsulfonyl fluoride, 10 mM sodium fluoride, aprotinin (10 μg/ml), leupeptin (5 μg/ml), and phosphatase inhibitors (Phos-STOP; Roche)], rotated for 45 min, and cleared of insoluble debris by centrifugation at 14,000×g (4° C., 15 min). After which the supernatant was collected, protein concentration determined, and equal amounts of cell lysate were mixed with 2×Laemmli sample buffer. Samples were analyzed afterwards essentially as described above.

| Compound | maximal agonist induced βarr recruitment response [1] | maximal agonist induced receptor-βarr internalization response [2] | βarr1/2-dependent ERK activation through β2-adrenergic receptor (ERK1/2) | EC50 (ERK1/2; Homo sapiens, HEK293, βarr-dependent but receptor-independent) | basal phosphorylation of ERK1/2 (ERK1/2; compound alone, absent of agonist) | time of peak ERK activation signal (ERK1/2; compound alone, decline observed at 30 minutes) | compound-induced ERK1/2 phosphorylation after knockdown of βarr1/2 (ERK1/2; βarr1/2 siRNA vs control siRNA) |
| --- | --- | --- | --- | --- | --- | --- | --- |
| C=C1C(=O)OC2CC3(C)OC3CC/C(C)=C\C(OC(C)=O)C12 (stereo not drawn) [Cmpd-64, [(8Z)-3,8-dimethyl-12-methylidene-13-oxo-4,14-dioxatricyclo[9.3.0.03,5]tetradec-8-en-10-yl] acetate] | significantly diminished | significantly diminished | attenuate | – | – | – | – |
| CN(C)c1n/c(=N/Cc2ccco2)ss1 [Cmpd-30, 5-(furan-2-ylmethylimino)-N,N-dimethyl-1,2,4-dithiazol-3-amine;hydrobromide] | significantly diminished | significantly diminished | – | 500 nM | increased | 15 to 20 min | markedly impaired |
| C=C1C(=O)C23[C@H](O)C1CC[C@H]2[C@]12COC3(O)[C@@H](O)[C@@H]1C(C)(C)CC[C@@H]2O [Cmpd-5, (1R,2S,10S,11R,15S,18R)-9,10,15,18-tetrahydroxy-12,12-dimethyl-6-methylidene-17-oxapentacyclo[7.6.2.15,8.01,11.02,8]octadecan-7-one] | significantly diminished | significantly diminished | attenuate | – | – | – | – |
